Settings: minipig, in vivo

oral bioavailability, expressed as the systemic exposure to ketoprofen relative to intravenous ketoprofen [%]	oral bioavailability, expressed as the systemic exposure to diclofenac relative to intravenous diclofenac [%]	SMILES
82	–	CC(C(=O)OCCCCCCO[N+](=O)[O-])c1cccc(C(=O)c2ccccc2)c1 (stereo not drawn) [Compound of formula Ic]
80	–	CC(C(=O)OCc1ccc(CO[N+](=O)[O-])cc1)c1cccc(C(=O)c2ccccc2)c1 (stereo not drawn) [Compound of formula If]
–	85	O=C(Cc1ccccc1Nc1c(Cl)cccc1Cl)OCCCCO[N+](=O)[O-] [Compound of formula Ig]

Source: US20040096494A1, “Composition” (priority 2003, published 2004)
